# Test results taken from US20230203041A1, “ANTAGONISTS OF THE ADENOSINE A2A RECEPTOR” (AdoRx Therapeutics Limited, priority 2020, published 2023).
# Counter-ions that a name gives are not always drawn.
# What was measured:
# [1] = target: T1, human Adenosine A2a receptor (Homo sapiens, UniProt P29274); assay: Adenosine receptor TR-FRET binding assay (CA200645 displacement), A2a; conditions: 100 nM CA200645, CHO cell membranes, 2 hours at room temperature
# T1 construct: expressed in transfected cells; host or cells: CHO cell membranes
# [2] = target: T2, human Adenosine A1 receptor (Homo sapiens, UniProt P30542); assay: Adenosine receptor TR-FRET binding assay (CA200645 displacement), A1
# T2 sequence (P30542 1-326): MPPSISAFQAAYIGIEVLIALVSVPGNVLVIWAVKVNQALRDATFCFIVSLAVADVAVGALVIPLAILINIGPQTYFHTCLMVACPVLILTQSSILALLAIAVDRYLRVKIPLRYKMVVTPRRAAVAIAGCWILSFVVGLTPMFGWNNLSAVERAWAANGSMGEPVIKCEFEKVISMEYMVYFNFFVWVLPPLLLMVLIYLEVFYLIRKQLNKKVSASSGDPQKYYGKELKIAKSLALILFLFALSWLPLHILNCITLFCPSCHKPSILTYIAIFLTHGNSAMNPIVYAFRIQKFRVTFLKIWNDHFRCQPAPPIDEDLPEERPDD
# [3] = target: T3, human Adenosine A2b receptor (Homo sapiens, UniProt P29275); assay: Adenosine receptor TR-FRET binding assay (CA200645 displacement), A2b; conditions: 30 nM CA200645, CHO cell membranes, 2 hours at room temperature
# T3 construct: expressed in transfected cells; host or cells: CHO cell membranes
# T3 sequence (P29275 1-332): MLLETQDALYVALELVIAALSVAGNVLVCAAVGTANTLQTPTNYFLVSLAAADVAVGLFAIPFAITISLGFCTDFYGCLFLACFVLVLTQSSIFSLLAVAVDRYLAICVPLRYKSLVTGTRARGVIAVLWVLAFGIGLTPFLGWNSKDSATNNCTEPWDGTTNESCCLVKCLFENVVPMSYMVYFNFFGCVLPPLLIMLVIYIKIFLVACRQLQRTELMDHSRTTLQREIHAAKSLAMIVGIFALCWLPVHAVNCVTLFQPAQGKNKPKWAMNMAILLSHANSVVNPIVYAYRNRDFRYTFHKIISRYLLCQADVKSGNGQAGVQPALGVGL
# [4] = target: T4, human Adenosine A3 receptor (Homo sapiens, UniProt P0DMS8); assay: Adenosine receptor TR-FRET binding assay (CA200645 displacement), A3
# T4 sequence (P0DMS8 1-318): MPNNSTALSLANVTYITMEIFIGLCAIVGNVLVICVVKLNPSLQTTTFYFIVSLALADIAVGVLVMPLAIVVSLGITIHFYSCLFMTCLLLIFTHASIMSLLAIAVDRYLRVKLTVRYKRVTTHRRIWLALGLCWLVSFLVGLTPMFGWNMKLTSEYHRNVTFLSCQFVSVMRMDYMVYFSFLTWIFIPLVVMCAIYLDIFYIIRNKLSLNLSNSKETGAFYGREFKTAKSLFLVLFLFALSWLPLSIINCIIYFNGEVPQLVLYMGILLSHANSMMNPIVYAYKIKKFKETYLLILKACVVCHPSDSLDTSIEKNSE
# Procedure: All FRET binding experiments were conducted at room temperature in white 384-well plates, in assay binding buffer containing 1×LabMed (Cisbio, France), 100 μg/mL saponin, 1% DMSO and 0.02% pluronic acid. Binding of the fluorescently labelled Adenosine receptor antagonist XAC (CA200645, FRET acceptor) to terbium-labelled A1, A2a, A2b and A3 adenosine receptors (FRET donors) was detected by time-resolved FRET due to the close proximity of the donor and acceptor in a binding event. To investigate the ability of unlabelled test compounds to bind to Adenosine A1, A2a, A2b and A3 receptors, dose response curves were constructed that determined the ability of a range of concentrations to inhibit the binding of 30 nM CA200645 to the A2b receptor and 100 nM CA200645 to the A1, A2a, and A3 receptor.
# Serial dilution (1:3 dilutions) of test compounds in neat DMSO and transfer of a 400 nL sample of test compound into the assay plate was carried out using the Mosquito (TTP Labtech, UK). The compound samples were incubated for 2 hours at room temperature with a fixed concentration of CA200645 defined for each receptor (see above) and CHO cell membranes containing the human Adenosine A1 (0.5 μg/well), A2a (0.3 μg/well), A2b (1 μg/well) or A3 (1 μg/well) receptor in 40 μL of assay buffer. Total and non-specific binding of CA200645 was determined in the absence and presence of 10 μM XAC, respectively. Following 2 hours incubation, the level of CA200645 binding was detected on a Pherastar FSX (BMG Labtech, Germany) using standard TR-FRET settings. The terbium donor was excited with three laser flashes at a wavelength of 337 nm, and donor and acceptor emission was detected at 620 nm and 665 nm wavelengths, respectively. FRET ratios were obtained by multiplying the acceptor/donor ratio value by 10,000. Specific binding was determined by subtracting the non-specific binding FRET ratio from the total binding FRET ratio. Compound IC50 curves were analysed using GraphPad Prism 7.0 (GraphPad, USA) and Ki affinity values were determined from the obtained IC50 values using the method of Cheng and Prusoff.
# T1 sequence (P29274 whole entry): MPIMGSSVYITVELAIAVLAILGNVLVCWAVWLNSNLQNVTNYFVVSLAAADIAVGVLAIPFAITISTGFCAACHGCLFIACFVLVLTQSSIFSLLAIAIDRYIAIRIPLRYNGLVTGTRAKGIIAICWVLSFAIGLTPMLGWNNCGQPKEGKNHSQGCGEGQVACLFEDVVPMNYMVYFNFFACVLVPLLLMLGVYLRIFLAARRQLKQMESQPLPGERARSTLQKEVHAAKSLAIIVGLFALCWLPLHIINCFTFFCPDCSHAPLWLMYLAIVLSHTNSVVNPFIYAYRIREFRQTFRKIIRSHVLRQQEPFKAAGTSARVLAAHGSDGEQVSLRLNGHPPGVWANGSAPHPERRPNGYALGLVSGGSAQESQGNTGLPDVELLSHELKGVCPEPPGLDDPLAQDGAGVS
SMILES,Ki [1] [µM],Ki [2] [µM],Ki [3] [µM],Ki [4] [µM]
"Cc1cc(-c2c(-c3cccc(C#N)c3)nn3ccc(NC(=O)N4CCNCC4)nc23)cc(Cl)n1 [Example 31, N-[3-(2-Chloro-6-methyl-4-pyridyl)-2-(3-cyanophenyl)pyrazolo[1,5-a]pyrimidin-5-yl]piperazine-1-carboxamide]",0.0104,0.096,0.002,> 1
"Cc1cc(-c2c(-c3cccc(C#N)c3)nn3ccc(NCC4(O)CNC4)nc23)cc(Cl)n1 [Example 4.11, 3-[3-(2-chloro-6-methyl-4-pyridyl)-5-[(3-hydroxyazetidin-3-yl)methylamino]pyrazolo[1,5-a]pyrimidin-2-yl]benzonitrile trifluoroacetate]",0.0068,0.053,0.001,> 1
"Cc1cc(-c2c(-c3cccc(C#N)c3)nn3ccc(C(C)(C)O)nc23)cc(Cl)n1 [Example 8, 3-[3-(2-Chloro-6-methyl-4-pyridyl)-5-(1-hydroxy-1-methyl-ethyl)pyrazolo[1,5-a]pyrimidin-2-yl]benzonitrile]",0.0099,0.291,0.041,> 1
"Fc1cccc(-c2cc3nc(NCCc4ccccc4)ccn3n2)c1 [Example 66.2, 2-(3-Fluorophenyl)-N-(2-phenylethyl)pyrazolo[1,5-a]pyrimidin-5-amine]",0.284,–,2.16,0.025
"Cc1cc(-c2c(-c3cccc(C#N)c3)nn3ccc(NCCO)nc23)cc(Cl)n1 [Example 19, 3-[3-(2-Chloro-6-methyl-4-pyridyl)-5-(2-hydroxyethylamino)pyrazolo[1,5-a]pyrimidin-2-yl]benzonitrile]",0.0003,0.016,0.004,–
"CC(C)(O)CNC(=O)c1ccn2nc(-c3cccc(C#N)c3)c(-c3cncs3)c2n1 [Example 12.7, 2-(3-Cyanophenyl)-N-(2-hydroxy-2-methyl-propyl)-3-thiazol-5-yl-pyrazolo[1,5-a]pyrimidine-5-carboxamide]",0.0274,0.725,0.792,–
"Fc1cccc(-c2nn3ccc(NCc4ccccc4)nc3c2Cl)c1 [Example 67, N-Benzyl-3-chloro-2-(3-fluorophenyl)pyrazolo[1,5-a]pyrimidin-5-amine]",0.12,–,7.47,> 1
Cc1cc(-c2c(-c3cccc(C#N)c3)nn3ccc(NC(C)(C)C)nc23)cc(Cl)n1 [Example 3.2],0.012,–,0.113,> 1
"O=C(O)c1c(-c2ccco2)nn2ccc(NCc3ccccc3)nc12 [Example 76, 5-(Benzylamino)-2-(2-furyl)pyrazolo[1,5-a]pyrimidine-3-carboxylic acid]",0.116,2.54,2.43,–
Cc1cc(-c2c(-c3cccc(C#N)c3)nn3ccc(N[C@@H](C)CO)nc23)cc(Cl)n1 [Example 23.3],0.0101,–,0.029,> 1
"CCn1ncc(C)c1-c1c(-c2cccc(C#N)c2)nn2ccc(C(=O)NCC(C)(C)O)nc12 [Example 12.3, 2-(3-Cyanophenyl)-3-(2-ethyl-4-methyl-pyrazol-3-yl)-N-(2-hydroxy-2-methyl-propyl)pyrazolo[1,5-a]pyrimidine-5-carboxamide]",–,–,2.31,> 1
N#Cc1cccc(-c2nn3ccc(N)nc3c2-c2cn[nH]c2)c1 [Example 1.1],0.147,0.095,0.239,–
"Cc1cc(-c2c(-c3cccc(C#N)c3)nn3ccc(O[C@H]4CCNC4)nc23)cc(Cl)n1 [Example 24.2, 3-[3-(2-Chloro-6-methyl-4-pyridyl)-5-[(3S)-pyrrolidin-3-yl]oxy-pyrazolo[1,5-a]pyrimidin-2-yl]benzonitrile]",0.0125,–,0.025,> 1
"Cc1cc(-c2c(-c3cccc(C#N)c3)nn3ccc(C(=O)N[C@H]4CCCNC4)nc23)cc(Cl)n1 [Example 7.4, 3-(2-Chloro-6-methyl-4-pyridyl)-2-(3-cyanophenyl)-N-[(3S)-3-piperidyl]pyrazolo[1,5-a]pyrimidine-5-carboxamide]",0.0041,–,0.119,> 1
"Fc1ccccc1-c1cc2nc(NCc3ccccc3)ccn2n1 [Example 36, N-Benzyl-2-(2-fluorophenyl)pyrazolo[1,5-a]pyrimidin-5-amine]",0.175,–,1.78,> 1
Cc1cc(-c2c(-c3cccc(C#N)c3)nn3ccc(N4CCOCC4)nc23)cc(Cl)n1 [Example 2.33],0.0225,–,0.212,2
"Fc1cccc(-c2cc3nc(NCc4nc5ccccc5[nH]4)ccn3n2)c1 [Example 66.3, N-(1H-Benzimidazol-2-ylmethyl)-2-(3-fluorophenyl)pyrazolo[1,5-a]pyrimidin-5-amine]",0.492,0.102,2.43,–
"Cc1cc(-c2c(-c3cccc(C#N)c3)nn3ccc(C(=O)N[C@@H]4CCCNC4)nc23)cc(Cl)n1 [Example 7.7, 3-(2-Chloro-6-methyl-4-pyridyl)-2-(3-cyanophenyl)-N-[(3R)-3-piperidyl]pyrazolo[1,5-a]pyrimidine-5-carboxamide]",0.0149,–,0.012,> 1
"Cc1cccnc1CNc1ccn2nc(-c3cccc(F)c3)cc2n1 [Example 66.1, 2-(3-Fluorophenyl)-N-[(3-methyl-2-pyridyl)methyl]pyrazolo[1,5-a]pyrimidin-5-amine]",0.072,–,1.2,> 1
"Fc1cccc(-c2nn3ccc(NCc4ccccc4)nc3c2Br)c1 [Example 69, N-Benzyl-3-bromo-2-(3-fluorophenyl)pyrazolo[1,5-a]pyrimidin-5-amine]",0.141,–,10,> 1
"N#Cc1c(-c2ccco2)nn2ccc(N3CCN(c4ccccc4)CC3)nc12 [Example 55, 2-(2-Furyl)-5-(4-phenylpiperazin-1-yl)pyrazolo[1,5-a]pyrimidine-3-carbonitrile]",0.0431,–,2.37,> 1
"Cc1cc(-c2c(-c3cccc(C#N)c3)nn3ccc(O[C@H]4CCCNC4)nc23)cc(Cl)n1 [Example 24.3, 3-[3-(2-Chloro-6-methyl-4-pyridyl)-5-[[(3S)-3-piperidyl]oxy]pyrazolo[1,5-a]pyrimidin-2-yl]benzonitrile]",0.0508,–,0.091,> 1
"CCn1nccc1-c1c(-c2cccc(C#N)c2)nn2ccc(C(=O)NCC(C)(C)O)nc12 [Example 12, 2-(3-Cyanophenyl)-3-(2-ethylpyrazol-3-yl)-N-(2-hydroxy-2-methyl-propyl)pyrazolo[1,5-a]pyrimidine-5-carboxamide]",0.145,–,0.24,> 1
"Cn1nccc1-c1c(-c2cccc(C#N)c2)nn2ccc(C(=O)NCC(C)(C)O)nc12 [Example 12.5, 2-(3-Cyanophenyl)-N-(2-hydroxy-2-methyl-propyl)-3-(2-methylpyrazol-3-yl)pyrazolo[1,5-a]pyrimidine-5-carboxamide]",–,2.38,1.51,–
"Nc1ccn2nc(-c3cccc(F)c3)c(Br)c2n1 [Example 71, 3-Bromo-2-(3-fluorophenyl)pyrazolo[1,5-a]pyrimidin-5-amine]",0.197,–,3.86,> 1
"Cc1cc(-c2c(-c3cccc(C#N)c3)nn3ccc(C(=O)O)nc23)cc(Cl)n1 [Example 9, 3-(2-Chloro-6-methyl-4-pyridyl)-2-(3-cyanophenyl)pyrazolo[1,5-a]pyrimidine-5-carboxylic acid]",0.094,–,0.426,> 1
"Cc1cc(-c2c(-c3cccc(C#N)c3)nn3ccc(N)nc23)cc(C#N)n1 [Example 26.3, 4-[5-Amino-2-(3-cyanophenyl)pyrazolo[1,5-a]pyrimidin-3-yl]-6-methyl-pyridine-2-carbonitrile]",0.0072,0.044,0.012,–
"Cc1cc(-c2c(-c3cccc(C#N)c3)nn3ccc(NS(N)(=O)=O)nc23)cc(Cl)n1 [Example 93, 3-(2-chloro-6-methyl-4-pyridyl)-2-(3-cyanophenyl)-5-(sulfamoylamino)pyrazolo[1,5-a]pyrimidine]",0.0111,0.307,0.001,–
